Experimental data: patent US20230247989A1, “Synergistic Biocide Composition With a Polyglycerol Ester” (Arch UK Biocides Ltd, priority 2020, published 2023)

Tested on: Pseudomonas aeruginosa ATCC 15442
Experiment: Suspension test for synergy: log reduction of Pseudomonas aeruginosa after 5 min contact
Format: cell-based
Conditions: for Log Reduction: 5 minutes contact
Procedure: The target organism Pseudomonas aeruginosa ATCC 15442 was taken from freezer stocks and grown for 24 hours on tryptone soy agar (TSA) at 37° C. A second subculture was produced from the first and grown with the same conditions. A test suspension was then created by adding loopfuls of organism to tryptone buffered saline and adjusting the cell concentration to 1×10^8 and 5×10^8 CFU/ml using an internally established calibration curve spectrophotometer at a wavelength of 600 nm. To establish the precise CFU/ml a 1 ml aliquot was then taken from the test suspension and serially diluted down to 10^−6 and 10^−7, 1 ml of each dilution was then plated in duplicate using the pour plate method on to TSA. The plates were then incubated for 24 hours at 37° C. and enumerated.
For each biocide tested a series of 3 samples were prepared in sterile distilled water,
Test sample 1—Biocide alone (to measure basic efficacy of the biocide)
Test sample 2—Biocide in combination with polyglyceryl-10 caprylate/caprate (to measure the efficacy of the combination of biocide and polyglycerol ester)
Control—A control sample of polyglyceryl-10 caprylate/caprate was prepared in deionized water to measure the efficacy of polyglycerol ester alone.
Each test sample was prepared at a concentration 10% higher than that of the target concentration to account for the dilution effect from the addition of the test organism suspension during the test procedure.
A test mixture was prepared by adding a 0.1 ml aliquot of test organism suspension to a tube followed by 0.9 ml of test sample (prepared as above). The combination was then mixed and a timer started immediately.
Upon achieving the specified contact time the test mixture was deactivated by adding a 0.1 ml aliquot of the test mixture to 0.9 ml of neutralizing broth and the whole solution mixed. The solution was left for 5 minutes to ensure the action of the biocide was effectively neutralized.
To quantify the surviving number of organisms in the neutralized test mixture, 4×0.025 ml aliquots were taken and spot plated onto the surface of dried TSA. The plates were then incubated for 24 hours at 37° C.
For spot plating, colonies from the incubated plates were enumerated using the lower count limit of <1 and the upper count limit of >150. […] For the upper limit, if 156 colonies were counted on a plate, >150 would be recorded and 150 would be used for the calculation.
Enumeration and Calculation of T (Test Mixture) • First, the mean average of cfu per 0.025 ml spots was established using the below calculation,
Log Reduction Calculations (N0−T) • Before calculating the log reduction both N0 and T were converted into a logarithm base 10 value. For example;
The test procedure outlined above was used to test for synergy between polyglyceryl-10 caprylate/caprate (PG1000) and the various biocidal agents listed in Table 1. Varying concentrations were prepared and were tested at 5 mins for the presence of Pseudomonas aeruginosa.

## CC(C)O [Isopropanol]
Biocide alone 16%
  Log Reduction: <2.85

## polyglyceryl-10 caprylate/caprate [PGE Control]
PGE alone 100 ppm in deionized water
  Log Reduction: <2.92
At 100 ppm, 5 mins
  activity (in words): little or no activity

## CCCCCCCCCCCCN(C)C.Cl [Dodecyledimethylammonuim chloride]
Biocide alone 20 ppm
  Log Reduction: 3.88

## N=C(NCCCCCCNC(=N)NC(=N)Nc1ccc(Cl)cc1)NC(=N)Nc1ccc(Cl)cc1 [Chlorhexidine, reference compound]
Biocide alone 65 ppm
  Log Reduction: 3.44

## CCCCCCCCCCCCN(CCCN)CCCN [N-(3-aminopropyl)-N-dodecylpropane-1,3-diamine]
Biocide alone 50 ppm
  Log Reduction: 2.98
